Data on twelve compounds can be found in paper PMC6151407 (Molecules : A Journal of Synthetic Chemistry and Natural …, 2017).

Values after ≈ are worked out from the molar mass of the structure shown. Where two headings read alike, the source gives them in different places.

Experiment [1] deals with AGE formation. Put plainly: Inhibition of AGE formation (bovine serum albumin with fructose and glucose, fluorescence). The experiment is classed as biochemical. The conditions noted are these: 60 °C for 2 days, pH 7.4, mean ± S.D. (n = 3); for IC50: isolated compounds, read-out: IC50 AGEs Formation. Here is the method: Inhibition of AGE formation was measured with a spectrophotometric method developed previously. All tested samples were dissolved in 10% DMSO at five different final concentrations (10–500 µg/mL for extracts and fractions or 10–500 µM for isolated constituents). The assay mixture contained bovine serum albumin (10 mg/mL), 50 mM phosphate buffer (pH 7.4) with 0.02% sodium azide, and 0.4 M fructose and glucose. The reaction was incubated at 60 °C for 2 days. After incubating, fluorescence was measured at an excitation wavelength of 350 nm and emission of 450 nm in a black 96-well plate. Aminoguanidine (AG), a typical inhibitor of AGE formation, was used as a positive control. The inhibitory activity was calculated with the following formula: (Ac − As/Ac) × 100, where Ac is the fluorescence of the control, and As is the fluorescence of the sample.

Experiment [2] has as its target T1, horse serum BChE (EC3.1.1.8) (Equus caballus, UniProt P81908).
T1 construct: horse serum BChE (EC3.1.1.8); purchased Sigma-Aldrich Chemical Company (St. Louis, MO, USA); host or cells: horse serum
Put plainly: biochemical. The protocol:
(§1) n-Hexane (Hx), ethyl acetate (EA), n-butanol (BuOH), methanol (MeOH), ethanol (EtOH), and distilled water were used for extraction, fractionation, and open column chromatography. Open column chromatography used Sephadex LH-20 (25–100 μm; Pharmacia, Stockholm, Sweden), MCI CHP 20P (Supelco, St. Louis, MO, USA), and ODS gel (400–500 mesh; Waters, Milford, MA, USA). Dimethyl sulfoxide-d6 (DMSO-d6) and chloroform-d (CDCl3) were used for the NMR solution. MS was performed with ultra-high performance liquid chromatography and high-resolution mass spectrometry (UHPLC-HRMS) coupled with electrospray ionization hybrid linear trap-quadruple-Orbitrap MS (ESI/LTQ-Orbitrap) on an Ultimate 3000 rapid separation liquid chromatography (RSLC) system (Thermo, Darmstadt, Germany). ^1H- and ^13C-nuclear magnetic resonance (NMR) spectra were collected at 600 and 150 MHz, respectively, with a JEOL spectrometer. Chemical shifts are expressed as parts per million (ppm) on the δ scale, and coupling constants (J) are shown in Hertz. HPLC was conducted with Empower Pro 2.0 software (Waters, Milford, MA, USA), and determination was performed with a Waters 2695 system pump and Waters 996 Photodiode array detector (Waters, Milford, MA, USA). The separation column was a Waters Sunfire™ C18 column (4.6 × 250 mm, 5 μm). HPLC-grade solvents, such as acetonitrile (ACN), methanol (MeOH), and distilled water (H2O), were purchased from J. T. Baker® (Phillipsburg, PA, USA). HPLC-grade phosphoric acid and dimethyl sulfoxide (DMSO) were obtained from DEAJUNG Chemical (Siheung, Gyeonggi, Korea). Reagents and solvents including electric eel AChE (EC3.1.1.7), horse serum BChE (EC3.1.1.8), acetylthiocholine iodide (ACh), butyrylthiocholine chloride (BCh), 5,5′-dithiobis [2-nitrobenzoic acid] […] The BACE1 FRET assay kit (β-secretase) was purchased from PanVera Co. (Madison, WI, USA).
(§2) ChE activity was detected by AChE- or BChE-mediated hydrolysis of […] for 15 min to form thiocholine and the yellow 5-thio-2-nitrobenzoate anion. The result was quantified by measuring the absorbance 412 nm. The assay mixture contained 0.1 M potassium phosphate buffer (pH 7.8), 0.3 U/mL AChE or BChE, 0.5 mM DTNB, 0.6 mM ACh or BCh, and the sample for a total volume of 0.2 mL. All tested samples were dissolved in 10% DMSO at five different final concentrations (10–500 µg/mL for extracts and fractions or 10–500 µM for isolated constituents). The reaction was performed in a 96-well plate. […] Inhibitory activity was calculated with the following formula: (Ac − As/Ac) × 100, where Ac is the change in absorbance for the control after 15 min and As is the change in absorbance for the sample after 15 min.

Experiment [3] addresses BACE1 (Homo sapiens, UniProt P56817). Put plainly: BACE1 FRET assay kit (β-secretase) inhibition. The class given is biochemical. The following applies: isolated compounds; 60 min, room temperature, pH 4.5; mean ± S.D. (n = 3). The protocol: as §1
BACE1 inhibition was measured with a commercially available spectrophotometric method according to the manufacturer’s recommended protocol. The assay mixture contained 50 mM sodium acetate buffer (pH 4.5), 1.0 U/mL BACE1, substrate (750 nM Rh-[…]-Quencher in 50 mM ammonium bicarbonate), and sample. […] The reaction was incubated for 60 min at room temperature in the dark. BACE1 activity was determined by measuring the proteolysis of two fluorophores (Rh-[…]-Quencher) to form a fluorescent donor (Rh-EVNL) with an excitation of 545 nm and emission of 585 nm in a black 96-well plate. […] Inhibition was calculated with the following formula: (Ac − As/Ac) × 100, where Ac is the change in fluorescence for the control after 60 min, and As is the change in fluorescence for the sample after 60 min.

The target in experiment [4] is T2, electric eel AChE (EC3.1.1.7) (Electrophorus electricus, UniProt O42275).
T2 construct: purchased Sigma-Aldrich Chemical Company (St. Louis, MO, USA)
T2 sequence (O42275 24-633): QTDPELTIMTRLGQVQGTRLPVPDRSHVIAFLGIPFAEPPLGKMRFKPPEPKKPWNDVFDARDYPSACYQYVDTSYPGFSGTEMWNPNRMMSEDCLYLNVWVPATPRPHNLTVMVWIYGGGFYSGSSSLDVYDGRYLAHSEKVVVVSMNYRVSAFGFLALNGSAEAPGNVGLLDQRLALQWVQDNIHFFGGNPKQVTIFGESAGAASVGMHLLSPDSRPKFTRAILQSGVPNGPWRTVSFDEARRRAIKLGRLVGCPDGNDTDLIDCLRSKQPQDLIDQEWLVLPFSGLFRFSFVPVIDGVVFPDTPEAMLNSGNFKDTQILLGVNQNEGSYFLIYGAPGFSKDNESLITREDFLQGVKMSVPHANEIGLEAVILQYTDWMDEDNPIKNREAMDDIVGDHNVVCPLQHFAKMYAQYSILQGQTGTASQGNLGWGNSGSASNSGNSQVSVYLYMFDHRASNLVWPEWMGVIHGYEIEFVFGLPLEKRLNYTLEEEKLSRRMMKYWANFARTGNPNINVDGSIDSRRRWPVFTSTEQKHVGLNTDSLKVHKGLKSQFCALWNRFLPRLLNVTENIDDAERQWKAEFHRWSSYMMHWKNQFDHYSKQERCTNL
Put plainly: biochemical. Here is the method: n-Hexane (Hx), ethyl acetate (EA), n-butanol (BuOH), methanol (MeOH), ethanol (EtOH), and distilled water were used for extraction, fractionation, and open column chromatography. Open column chromatography used Sephadex LH-20 (25–100 μm; Pharmacia, Stockholm, Sweden), MCI CHP 20P (Supelco, St. Louis, MO, USA), and ODS gel (400–500 mesh; Waters, Milford, MA, USA). Dimethyl sulfoxide-d6 (DMSO-d6) and chloroform-d (CDCl3) were used for the NMR solution. MS was performed with ultra-high performance liquid chromatography and high-resolution mass spectrometry (UHPLC-HRMS) coupled with electrospray ionization hybrid linear trap-quadruple-Orbitrap MS (ESI/LTQ-Orbitrap) on an Ultimate 3000 rapid separation liquid chromatography (RSLC) system (Thermo, Darmstadt, Germany). ^1H- and ^13C-nuclear magnetic resonance (NMR) spectra were collected at 600 and 150 MHz, respectively, with a JEOL spectrometer. Chemical shifts are expressed as parts per million (ppm) on the δ scale, and coupling constants (J) are shown in Hertz. HPLC was conducted with Empower Pro 2.0 software (Waters, Milford, MA, USA), and determination was performed with a Waters 2695 system pump and Waters 996 Photodiode array detector (Waters, Milford, MA, USA). The separation column was a Waters Sunfire™ C18 column (4.6 × 250 mm, 5 μm). HPLC-grade solvents, such as acetonitrile (ACN), methanol (MeOH), and distilled water (H2O), were purchased from J. T. Baker® (Phillipsburg, PA, USA). HPLC-grade phosphoric acid and dimethyl sulfoxide (DMSO) were obtained from DEAJUNG Chemical (Siheung, Gyeonggi, Korea). Reagents and solvents including electric eel AChE (EC3.1.1.7), horse serum BChE (EC3.1.1.8), acetylthiocholine iodide (ACh), butyrylthiocholine chloride (BCh), 5,5′-dithiobis [2-nitrobenzoic acid] (DTNB), berberine, bovine serum albumin, aminoguanidine (AG), glucose, and fructose were purchased from Sigma-Aldrich Chemical Company (St. Louis, MO, USA). The BACE1 FRET assay kit (β-secretase) was purchased from PanVera Co. (Madison, WI, USA).
as §2

The mark [5] stands for this setting: isolated compounds, 15 min, pH 7.8, mean ± S.D. (n = 3), read-out: IC50 BChE.
The mark [6] stands for this setting: isolated compounds, 15 min, pH 7.8, mean ± S.D. (n = 3), read-out: IC50 AChE (converted).

T1 sequence (P81908 whole entry): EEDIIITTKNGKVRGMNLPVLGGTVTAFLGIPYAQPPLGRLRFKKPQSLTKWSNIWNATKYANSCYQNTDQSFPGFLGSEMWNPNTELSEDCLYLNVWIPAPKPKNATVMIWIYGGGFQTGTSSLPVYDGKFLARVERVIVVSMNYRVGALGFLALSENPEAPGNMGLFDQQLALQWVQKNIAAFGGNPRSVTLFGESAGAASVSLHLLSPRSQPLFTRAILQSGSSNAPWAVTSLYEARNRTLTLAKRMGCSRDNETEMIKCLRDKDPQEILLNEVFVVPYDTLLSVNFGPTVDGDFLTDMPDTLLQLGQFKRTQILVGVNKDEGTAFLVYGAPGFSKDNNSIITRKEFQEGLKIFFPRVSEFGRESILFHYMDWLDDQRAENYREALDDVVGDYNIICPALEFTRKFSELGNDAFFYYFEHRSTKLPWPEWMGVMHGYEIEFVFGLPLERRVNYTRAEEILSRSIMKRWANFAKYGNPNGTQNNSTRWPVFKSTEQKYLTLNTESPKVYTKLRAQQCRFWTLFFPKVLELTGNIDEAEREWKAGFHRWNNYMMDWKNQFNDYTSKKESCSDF
BACE1, sequence (P56817 46-501): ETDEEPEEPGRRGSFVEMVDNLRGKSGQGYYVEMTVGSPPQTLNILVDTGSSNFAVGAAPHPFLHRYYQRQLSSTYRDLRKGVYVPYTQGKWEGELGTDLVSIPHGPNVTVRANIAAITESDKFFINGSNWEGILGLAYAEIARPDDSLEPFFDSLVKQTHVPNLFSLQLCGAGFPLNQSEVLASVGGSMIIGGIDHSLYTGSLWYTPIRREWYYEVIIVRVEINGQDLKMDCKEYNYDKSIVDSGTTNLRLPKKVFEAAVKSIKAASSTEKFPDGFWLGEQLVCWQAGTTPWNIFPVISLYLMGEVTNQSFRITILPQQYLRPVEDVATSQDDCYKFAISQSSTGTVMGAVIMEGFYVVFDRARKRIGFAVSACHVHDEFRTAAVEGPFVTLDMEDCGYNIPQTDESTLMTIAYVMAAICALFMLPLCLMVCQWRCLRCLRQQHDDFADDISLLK

Turning to `COc1c(C)c(O)cc2c1C(=O)c1ccccc1C2=O` [Compound 6, rubiadin-1-methyl ether], the half-inhibitory concentration (IC50) is more than 1000 µM in experiment [1], more than 500 µM in experiment [2] (setting [5]), 25.9 ± 2.11 µM in experiment [3] and 87.2 ± 6.56 µM in experiment [4] (setting [6]).

As to `COc1c(O)ccc2c1C(=O)c1ccccc1C2=O` [Compound 1, alizarin-1-methyl ether], the concentration for half-maximal inhibition (IC50) in experiment [1] was 292.4 ± 2.28 µM; in experiment [2] (setting [5]) it was 450 ± 8.82 µM; in experiment [3], 192 ± 7.32 µM; in experiment [4] (setting [6]) it was 175 ± 10.7 µM.

As to `O=C1c2ccccc2C(=O)c2c(O)cc(CO)cc21` [Compound 7, 1-hydroxy-3-hydroxymethyl anthraquinone], the results for the half-inhibitory concentration (IC50) in experiment [2] (setting [5]) and in experiment [4] (setting [6]) were more than 500 µM and 96.4 ± 17.2 µM, respectively.

As to `COc1cc2ccc(=O)oc2cc1O` [Compound 9, scopoletin], the half-maximal inhibitory concentration (IC50) in experiment [1] was 5.43 ± 0.11 µM; in experiment [2] (setting [5]) it was 50.4 ± 1.61 µM; in experiment [3], more than 200 µM; in experiment [4] (setting [6]) it was 236 ± 21.2 µM.

As for `COc1ccc2c(c1)C(=O)c1ccccc1C2=O` [Compound 3, 2-methoxy anthraquinone], the half-inhibitory concentration (IC50) is 88.4 ± 3.28 µM in experiment [1], 230 ± 5.97 µM in experiment [2] (setting [5]), 9.29 ± 1.92 µM in experiment [3] and 187 ± 20.1 µM in experiment [4] (setting [6]).

As to `N=C(N)NN` [AG, aminoguanidine, reference compound], the “IC50 AGE Formation” value in experiment [1] (extracts and fractions) stood at 104.87 ± 6.94 mg/L (≈ 1420 µM). The IC50 in experiment [1] worked out at 762 ± 69.1 µM.

Consider `COc1cc2c(cc1CO)C(=O)c1ccccc1C2=O` [Compound 4, 2-hydroxymethyl-3-methoxy anthraquinone], for which the half-inhibitory concentration (IC50) in experiment [1] was 530 ± 15.5 µM; in experiment [2] (setting [5]) it was more than 500 µM; in experiment [3], more than 200 µM; in experiment [4] (setting [6]), 27 ± 1.49 µM.

`O=C1c2ccccc2C(=O)c2cc(CO)c(O)cc21` [Compound 5, 2-hydroxymethyl-3-hydroxy anthraquinone]: the concentration for half-maximal inhibition (IC50) is 355 ± 12 µM in experiment [1], 459 ± 13.1 µM in experiment [2] (setting [5]), more than 200 µM in experiment [3] and 19.1 ± 3.58 µM in experiment [4] (setting [6]).

Take `COc1c(O)cc2c(c1OC)C(=O)c1ccccc1C2=O` [Compound 2, 1,2-dimethoxy-3-hydroxy anthraquinone]: the IC50 in experiment [1] is 438 ± 23.9 µM; in experiment [2] (setting [5]), 442 ± 10.6 µM; in experiment [3] it was 115 ± 21.6 µM; in experiment [4] (setting [6]) it was 147 ± 13.3 µM.

In the case of `COc1ccc2cc3[n+](cc2c1OC)CCc1cc2c(cc1-3)OCO2` [Berberine, berberine, reference compound], the IC50 in experiment [4] (extracts and fractions, 15 min, pH 7.8, mean ± S.D. (n = 3), read-out: IC50 AChE (converted)) is 0.416 µM; in experiment [4] (setting [6]), 0.42 ± 0.03 µM.

With `CC[C@H](CC[C@@H](C)[C@H]1CC[C@H]2[C@@H]3CC=C4C[C@@H](O)CC[C@]4(C)[C@H]3CC[C@]12C)C(C)C` [Compound 10, β-sitosterol], the 50% inhibitory concentration (IC50) in experiment [2] (IC50 BChE) and in experiment [4] (IC50 AChE) was more than 500 µM throughout.

Consider `Cc1c(O)cc2c(c1O)C(=O)c1ccccc1C2=O` [Compound 8, rubiadin], for which the IC50 is 522 ± 10.1 µM in experiment [1], more than 500 µM in experiment [2] (setting [5]), 19.8 ± 3.05 µM in experiment [3] and 44.3 ± 12.2 µM in experiment [4] (setting [6]).

Usually IC50 stands for the concentration at which inhibition is half-maximal.
